Settings: 283.14 K, Liquid, Vibrating tube method

CCCCCCC(=O)OCC(COC(=O)CCCCCC)(COC(=O)CCCCCC)COC(=O)CCCCCC [pentaerythritol tetraheptanoate]
Settings | mass density [kg/m3]
23079 kPa | 998.5
23110 kPa | 998.5
23147 kPa | 998.6
23178 kPa | 998.6
23209 kPa | 998.6
23246 kPa | 998.5
23277 kPa | 998.7
23308 kPa | 998.6
23339 kPa | 998.7
23377 kPa | 998.7
23410 kPa | 998.6
23442 kPa | 998.7
23480 kPa | 998.8
23512 kPa | 998.7
23543 kPa | 998.7
23576 kPa | 998.8
23614 kPa | 998.8
23646 kPa | 998.8
23685 kPa | 998.8
23717 kPa | 998.8
23749 kPa | 998.9
23788 kPa | 998.8
23821 kPa | 998.9
23854 kPa | 999
23888 kPa | 998.9
23927 kPa | 998.9
23960 kPa | 998.9
23999 kPa | 998.9
24032 kPa | 998.9
24066 kPa | 999.1
24099 kPa | 998.9
24140 kPa | 999.1
24173 kPa | 999.1
24213 kPa | 999
24247 kPa | 999
24281 kPa | 999.1
24324 kPa | 999.2
24358 kPa | 999.1
24392 kPa | 999.2
24426 kPa | 999.3
24468 kPa | 999.3
24502 kPa | 999.3
24543 kPa | 999.3
24578 kPa | 999.3
24613 kPa | 999.2
24655 kPa | 999.4
24726 kPa | 999.4
24769 kPa | 999.4
24841 kPa | 999.4
24878 kPa | 999.5
24921 kPa | 999.5
24958 kPa | 999.4
24994 kPa | 999.5
25038 kPa | 999.6
25075 kPa | 999.6
25112 kPa | 999.6
25155 kPa | 999.5
25192 kPa | 999.6
25230 kPa | 999.6
25277 kPa | 999.6
25314 kPa | 999.6
25352 kPa | 999.6
25389 kPa | 999.7
25427 kPa | 999.8
25472 kPa | 999.8
25511 kPa | 999.8
25549 kPa | 999.8
25595 kPa | 999.7
25633 kPa | 999.9
25672 kPa | 999.8
25718 kPa | 1000
25758 kPa | 1000
25799 kPa | 999.9
25839 kPa | 999.8
25886 kPa | 999.9
25918 kPa | 1000.1
26265 kPa | 1000.1
26414 kPa | 1000.4
26496 kPa | 1000.3
26525 kPa | 1000.3
26556 kPa | 1000.2
26581 kPa | 1000.3
26612 kPa | 1000.3
26638 kPa | 1000.3
26665 kPa | 1000.4
26696 kPa | 1000.4
26722 kPa | 1000.4
26776 kPa | 1000.3
26950 kPa | 1000.5
27004 kPa | 1000.4
27030 kPa | 1000.6
27063 kPa | 1000.7
27090 kPa | 1000.6
27291 kPa | 1000.7
27380 kPa | 1000.7
27414 kPa | 1000.6
27442 kPa | 1000.8
27476 kPa | 1000.8
27506 kPa | 1000.7
27536 kPa | 1000.8
27566 kPa | 1000.9
27704 kPa | 1000.9
27724 kPa | 1000.9
27744 kPa | 1000.9
27768 kPa | 1000.9
27787 kPa | 1001
27808 kPa | 1000.9
27832 kPa | 1000.9
27851 kPa | 1001
27872 kPa | 1001
27980 kPa | 1001
28001 kPa | 1001

Source: the NIST ThermoML archive (doi:10.1021/je060271a)
